Experiments:
[1] = test system: leaf discs of the common lawn weed Plantiago major; experiment: Leaf disc bioassay, Plantiago major leaf discs; set-up: key to necrosis and chlorosis 18 HAT / necrosis and chlorosis 36 HAT: 0: no damage; +: minor damages; ++: severe damages on up to 50% of leave surface; +++: damages on more than 50% of leave surface; ++++: 100% damage
Text: (§1) The plants and leaves were visually assessed for damages by necrosis and chlorosis with the following scale for evaluation: • 0: no damage • +: minor damages • ++: severe damages on up to 50% of leave surface • +++: damages on more than 50% of leave surface • ++++: 100% damage
5 mm discs were cut from leaves of plants from Plantiago major, Sesamum indicum, Aegopodium potagraria and Chelidonium majus using a paper punch (5 mm). 3 leaf discs of 5 mm Ø were placed in each well of 12-well microtiter plates. Each well containing 2 ml deionized H2O, or solutions of various concentrations of glyphosate, 2,4-D or synergistic mixtures (M). The plates were incubated under continuous light at 20° C. for the listed times. The leaf discs were visually assessed for chlorosis and necrosis at various times after treatment according to the scale for classification. The visual rating utilized a rating scale from 0 to ++++, where 0=no damage by necrosis/chlorosis, and ++++=total damage by chlorosis/necrosis (see Literature).
3 leaf discs of 5 mm Ø were placed in each well of 12-well microtiter plates. Each well containing 2 ml deionized H2O, or solutions of various concentrations of 2,4-D or synergistic mixture M4 with a 1:1 mixture of citric acid and SDS. The plates were incubated under continuous light at 20° C. for the listed times. The leaf discs were visually assessed for chlorosis and necrosis according to the scale for classification and listed for hours after treatment (HAT). The visual rating utilized a rating scale from 0 to ++++, where 0=no damage by necrosis/chlorosis, and ++++=total damage by chlorosis/necrosis.

[2] = test system: plant leaves; experiment: Different tests (leaf disc bioassays, growth chamber trials, field trials), summary; conditions: herbicide alone at a concentration of 0.1% to 0.25%
Protocol: The activity of the synergistic mixtures to enhance the efficacy of herbicides was tested in vitro by leaf disc bioassays, in growth chamber trials with seedlings and in field trials with various different weed species.
as §1

[3] = application rate 0.1 % of volume
[4] = application rate 0.25 % of volume
[5] = application rate 0.5 % of volume

O=C(O)COc1ccc(Cl)cc1Cl [2,4-D, 2,4-dichlorophenoxyacetic acid]
necrosis and chlorosis 18 HAT [1, 3]: 0 | necrosis and chlorosis 36 HAT [1, 3]: 0 | necrosis and chlorosis 18 HAT [1, 4]: 0 | necrosis and chlorosis 36 HAT [1, 4]: 0 | necrosis and chlorosis 18 HAT [1, 5]: 0 | necrosis and chlorosis 36 HAT [1, 5]: 0 | damage of the leaf discs ([1]; substance alone, conditions of Table 4): do not show efficient damage | damage of plant leaves [2]: did not show any significant damage

From US20180116213A1 (priority 2015, published 2018)
